Data: patent publication US7550469B2, “Heterocyclic amide derivatives and their use as dopamine D3 receptor ligands” (Aventis Pharmaceuticals Inc., priority 2001, dated 2009)
Read-outs that look alike come from different tables or passages of the source.

Target: T1, cloned human dopamine D3 receptors (Homo sapiens, UniProt P35462)
T1 construct: expressed in transfected cells; membrane homogenate
Assay: [N-Methyl-3H]Spiroperidol binding to cloned human dopamine D3 receptors (Protocol 1)
Summary of the method: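 Membranes from CHO cells stably expressing cloned human D3 receptor were used for [N-methyl-3H]spiroperidol (60-90 Ci/mmol) binding. Assay buffer was 0.05 M Tris HCl pH 7.7 with 120 mM NaCl, 5 mM KCl, 2 mM CaCl2 and 1 mM MgCl2, optionally 0.1% ascorbic acid; total ligand concentration calculated from added CPM.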

[1] = the 14th table, read-out: D3 Ki
[2] = the 13th table, unit inferred, read-out: D3Ki

T1 sequence (P35462 whole entry): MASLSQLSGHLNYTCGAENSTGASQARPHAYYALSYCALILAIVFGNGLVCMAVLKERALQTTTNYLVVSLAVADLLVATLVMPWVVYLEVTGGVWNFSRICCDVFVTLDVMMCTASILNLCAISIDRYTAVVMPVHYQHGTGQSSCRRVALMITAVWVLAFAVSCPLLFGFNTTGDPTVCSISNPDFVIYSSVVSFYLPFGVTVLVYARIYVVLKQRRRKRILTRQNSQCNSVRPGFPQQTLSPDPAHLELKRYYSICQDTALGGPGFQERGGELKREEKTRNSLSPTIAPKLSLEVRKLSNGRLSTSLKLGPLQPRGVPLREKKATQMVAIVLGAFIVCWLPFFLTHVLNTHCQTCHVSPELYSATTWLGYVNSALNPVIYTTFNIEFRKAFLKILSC

Compound	Ki (Table 2, read-out: D3K1) [nM]	Ki (read-out: D3K1) [nM]	Ki [1] [nM]	Ki [2] [nM]
O=C(NC(CO)CCCN1CCN(c2csc3cc(C(F)(F)F)ccc23)CC1)c1ccc2c(c1)S(=O)(=O)c1ccccc1C2=O (centres unmarked) [compound 815685]	186	186	186	–
O=C(NC(CO)CCCN1CCN(c2csc3cc(C(F)(F)F)ccc23)CC1)c1cc2ccc(Cl)cc2s1 (centres unmarked) [compound 815686]	275	275	275	–
O=C(NC(CO)CCCN1CCN(c2csc3cc(C(F)(F)F)ccc23)CC1)c1ccccc1C(F)(F)F (centres unmarked) [compound 815688]	190	190	190	–
COc1ccc(C(=O)NC(CO)CCCN2CCN(c3csc4cc(C(F)(F)F)ccc34)CC2)cc1OC (centres unmarked) [compound 815689]	225	225	225	–
O=C(NC(CO)CCCN1CCN(c2csc3cc(C(F)(F)F)ccc23)CC1)c1ccc(Cl)cc1 (centres unmarked) [compound 815690]	245	245	245	–
CC(=O)Nc1ccc(C(=O)N[C@H](CO)CCCN2CCN(c3csc4cc(C(F)(F)F)ccc34)CC2)cc1 [compound 815691]	241	241	241	–
COc1ccc(C(=O)N[C@H](CO)CCCN2CCN(c3csc4cc(C(F)(F)F)ccc34)CC2)cc1 [compound 815692]	191	191	191	–
O=C(N[C@H](CO)CCCN1CCN(c2csc3cc(C(F)(F)F)ccc23)CC1)c1ccc(-c2ccccc2)cc1 [compound 815694]	197	197	197	–
Cc1ccc(C(=O)N[C@H](CO)CCCN2CCN(c3csc4cc(C(F)(F)F)ccc34)CC2)cc1 [compound 815695]	198	198	198	–
O=C(N[C@H](CO)CCCN1CCN(c2csc3cc(C(F)(F)F)ccc23)CC1)c1ccco1 [compound 815696]	871	871	871	–
O=C(N[C@H](CO)CCCN1CCN(c2csc3cc(C(F)(F)F)ccc23)CC1)c1ccc2ccccc2c1 [compound 815697]	294	294	294	–
O=C(N[C@H](CO)CCCN1CCN(c2csc3cc(C(F)(F)F)ccc23)CC1)c1cc2ccccc2[nH]1 [compound 815698]	329	329	329	–
O=C(N[C@H](CO)CCCN1CCN(c2csc3cc(C(F)(F)F)ccc23)CC1)c1ccc2[nH]ccc2c1 [compound 815700]	128	128	128	–
O=C(N[C@H](CO)CCCN1CCN(c2csc3cc(C(F)(F)F)ccc23)CC1)c1cnccn1 [compound 815702]	439	439	439	–
CCn1cc(C(=O)NC(CO)CCCN2CCN(c3csc4cc(C(F)(F)F)ccc34)CC2)c(=O)c2ccc(C)nc21 (centres unmarked) [compound 815704]	137	137	137	–
O=C(N[C@H](CO)CCCN1CCN(c2csc3cc(C(F)(F)F)ccc23)CC1)c1cc2ccccc2s1 [compound 815708]	180	180	180	–
O=C(N[C@H](CO)CCCN1CCN(c2csc3cc(C(F)(F)F)ccc23)CC1)c1ccc2c(c1)S(=O)(=O)c1ccccc1C2=O [compound 815709]	124	124	124	–
O=C(N[C@H](CO)CCCN1CCN(c2csc3cc(C(F)(F)F)ccc23)CC1)c1cc2ccc(Cl)cc2s1 [compound 815710]	210	210	210	–
O=C(NCCCCN1CCN(c2c(-c3ccccc3)sc3cc(F)ccc23)CC1)c1cccc(F)c1 [compound 815870]	28.4	–	28.4	–
O=C(NCCCCN1CCN(c2c(-c3ccccc3)sc3cc(F)ccc23)CC1)c1ccc(C(F)(F)F)cc1 [compound 815871]	796	–	796	–
O=C(NCCCCN1CCN(c2c(-c3ccccc3)sc3cc(F)ccc23)CC1)c1ccc(-c2ccccc2)cc1 [compound 815872]	567	–	–	–
O=C(NCCCCN1CCN(c2c(-c3ccccc3)sc3cc(F)ccc23)CC1)c1cc2ccccc2s1 [compound 815873]	263	–	–	–
O=C(NCCCCN1CCN(c2c(-c3ccccc3)sc3cc(F)ccc23)CC1)c1ccc(Br)cc1 [compound 815874]	282	–	–	–
O=C(NCCCCN1CCN(c2c(-c3ccccc3)sc3cc(F)ccc23)CC1)c1cccs1 [compound 815879]	292	–	–	–

Compound	Ki (Table 2, read-out: D3K1) [nM]	Ki (read-out: D3K1) [nM]	Ki [1] [nM]	Ki [2] [nM]
O=C(NCCCCN1CCN(c2c(-c3ccccc3)sc3cc(F)ccc23)CC1)c1ccc(Cl)cc1 [compound 815880]	837	–	–	–
O=C(NCCCCN1CCN(c2c(-c3ccccc3)sc3cc(F)ccc23)CC1)c1ccc(F)cc1 [compound 815883]	339	–	–	–
O=C(Cc1cccs1)NCCCCN1CCN(c2c(-c3ccccc3)sc3cc(F)ccc23)CC1 [compound 815884]	296	–	–	–
O=C(NCCCCCN1CCC(c2noc3ccsc23)CC1)c1cc2ccccc2s1 [compound 816196]	–	–	–	161
O=C(NCCCCCN1CCC(c2noc3ccsc23)CC1)c1ccc2ccccc2c1 [compound 816197]	–	–	–	116
CCOc1ccc(C(=O)NCCCCCN2CCC(c3noc4ccsc34)CC2)cc1 [compound 816198]	–	–	–	110
O=C(NCCCCCN1CCC(c2noc3ccsc23)CC1)c1ccc(Cl)cc1 [compound 816199]	–	–	–	157
CCCCCCC(=O)NCCCCCN1CCC(c2noc3ccsc23)CC1 [compound 816202]	–	–	–	326
C=CCCCCCCC(=O)NCCCCCN1CCC(c2noc3ccsc23)CC1 [compound 816203]	–	–	–	94.1
O=C(NCCCCCN1CCC(c2noc3ccsc23)CC1)C(Cl)c1ccccc1 (centres unmarked) [compound 816204]	–	–	–	218
O=C(NCCCCCN1CCC(c2noc3ccsc23)CC1)C1CCCC1 [compound 816205]	–	–	–	455
O=C(Cc1cc2ccccc2s1)NCCCCCN1CCC(c2noc3ccsc23)CC1 [compound 816206]	–	–	–	505
O=C(NCCCCCN1CCC(c2noc3ccsc23)CC1)c1ccccc1[N+](=O)[O-] [compound 816207]	–	–	–	182
O=C(NCCCCCN1CCC(c2noc3ccsc23)CC1)c1ccc(-c2ccccc2)cc1 [compound 816208]	–	–	–	84.9
O=C(NCCCCCN1CCC(c2noc3ccsc23)CC1)c1ccccc1C(F)(F)F [compound 816211]	–	–	–	224
O=C(NCCCCCN1CCC(c2noc3ccsc23)CC1)c1ccccc1 [compound 816212]	–	–	–	570
O=C(NCCCCCN1CCC(c2noc3ccsc23)CC1)c1cccc(Cl)c1 [compound 816214]	–	–	–	264
COc1ccc(C(=O)NCCCCCN2CCC(c3noc4ccsc34)CC2)cc1OC [compound 816215]	–	–	–	272
O=C(NCCCCCN1CCC(c2noc3ccsc23)CC1)c1ccc(F)cc1 [compound 816217]	–	–	–	364
CCCCc1ccc(C(=O)NCCCCCN2CCC(c3noc4ccsc34)CC2)cc1 [compound 816218]	–	–	–	316
CCCCCCc1ccc(C(=O)NCCCCCN2CCC(c3noc4ccsc34)CC2)cc1 [compound 816219]	–	–	–	132
O=C(NCCCCCCN1CCN(c2csc3cc(C(F)(F)F)ccc23)CC1)c1cc2ccccc2[nH]1 [compound 816315]	3.7	3.7	3.7	–
O=C(NCCCCCCN1CCN(c2csc3cc(C(F)(F)F)ccc23)CC1)c1ccc2[nH]ccc2c1 [compound 816316]	2.7	2.7	2.7	–
